This is an account of results in patent publication US20230040770A1, “HETEROCYCLIC COMPOUND AND USE THEREOF” (TAKEDA PHARMACEUTICAL COMPANY LIMITED, priority 2019, published 2023).

One may read the microsomal CLint as a measure of how fast metabolising enzymes remove a compound, apart from limits set by blood flow. Lower therefore signals slow turnover.

Data set [1] has as its target T1, human orexin type 2 receptor (Homo sapiens, UniProt O43614).
T1 construct: expressed in transfected cells
T1 sequence (O43614 1-444): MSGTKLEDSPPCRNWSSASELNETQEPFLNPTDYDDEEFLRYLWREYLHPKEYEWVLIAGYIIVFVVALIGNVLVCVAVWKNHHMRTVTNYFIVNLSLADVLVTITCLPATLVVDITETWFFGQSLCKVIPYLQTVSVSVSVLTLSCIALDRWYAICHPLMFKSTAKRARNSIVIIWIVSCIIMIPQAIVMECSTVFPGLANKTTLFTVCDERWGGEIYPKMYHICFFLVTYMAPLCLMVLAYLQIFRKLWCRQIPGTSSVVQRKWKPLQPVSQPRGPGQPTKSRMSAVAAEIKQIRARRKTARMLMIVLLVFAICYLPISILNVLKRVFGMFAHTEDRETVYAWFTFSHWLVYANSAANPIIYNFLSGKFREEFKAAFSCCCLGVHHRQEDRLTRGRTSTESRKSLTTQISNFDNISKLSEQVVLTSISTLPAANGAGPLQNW
The experiment in a line: Measurement of orexin type 2 receptor agonist activity (calcium indicator fluorescence, CHO cells forcibly expressing human OX2 receptor). Format: cell-based. Conditions: compound at 3 μM; 0% = DMSO, 100% = orexin A (human) 10 nM. In outline: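 Agonist response normalised between vehicle (0%) and orexin A at 10 nM final (100%), from kinetic Fluo-4 calcium signals recorded for about 2 min after compound addition. Cells: stable human OX2R CHO clone, dye-loaded 30 min at 37 °C plus 30 min at room temperature.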

Data set [2] is described as follows: Evaluation of microsome stability in human. The settings on record: pH 7.4; in vitro intrinsic metabolic clearance; human liver microsomes 0.2 mg/mL, 1 μmol/L test compound, NADPH-generating system. Format: in vitro ADME. Here is the method: Human liver microsomes were purchased from Xenotech, LLC (Lenexa, Kans.). An incubation mixture consisted of microsomes in 50 mmol/L KH2PO4—K2HPO4 phosphate buffer (pH 7.4) and 1 μmol/L test compound. The concentration of microsomal protein was 0.2 mg/mL. An NADPH-generating system (5 mmol/L MgCl2, 5 mmol/L glucose-6-phosphate, 0.5 mmol/L beta-NADP+ and 1.5 unit/mL glucose-6-phosphate dehydrogenase) was added to the incubation mixture with a half volume of the reaction mixture to initiate the enzyme reaction. The reaction was terminated 15 and 30 minutes after the initiation of the reaction by mixing the reaction mixture with acetonitrile, followed by centrifugation at 2500 rpm for 10 min. The supernatant was subjected to LC/MS/MS analysis. The metabolic rate constant was calculated as the slope of the remaining rate-time plot. The in vitro intrinsic metabolic clearance was calculated by dividing initial metabolic rate constant by microsomal protein in the incubation mixture.

For data set [3], the system named is cynomolgus monkeys. Kind of data set: Evaluation of wake-promoting effects in cynomolgus monkeys (EEG/EMG). It counts as in vivo, cynomolgus monkey. The settings on record: Macaca fascicularis, po; 3 mg/kg p.o. at ZT12; time spent in wakefulness for 4 h after administration; read-out: Wakefulness time (% of vehicle treatment) (Mean). As to the method: The wake-promoting effects were evaluated by measuring the electroencephalogram (EEG) and electromyogram (EMG) in cynomolgus monkeys. Under isoflurane anesthesia (1-5%, Pfizer Japan Inc., Tokyo, Japan), male cynomolgus monkeys (3-5 years old, Hamri Co., Ltd., Ibaraki, Japan) were surgically implanted with radio-telemetry transmitters (TL10M3-D70-EEE, Data Sciences International Inc., MN, USA). EEG electrodes were screwed into the skull at the parietal area. EMG electrodes were implanted on the cervical muscles. After the surgery, each monkey was given penicillin (100,000 units/head, i.m., Meiji Seika Pharma Co., Ltd., Tokyo, Japan), buprenorphine (0.02 mg/kg, i.m., Otsuka Pharmaceutical Co., Ltd., Tokyo, Japan) and prednisolone (1 mg/kg, s.c., Kyoritsu Seiyaku Co., Ltd., Tokyo, Japan) daily for one week. After at least a 1-month recovery period in home cages, the monkeys were habituated to the recording chamber placed in a soundproof room. EEG and EMG signals were recorded using the telemetry system (Dataquest ART software, Data Sciences International Inc., MN, USA) and the signals were analyzed using SleepSign software (Kissei Comtec Co., Ltd., Nagano, Japan). After confirming long sleep in dark phase in the experimental room, we used animals to examine the wake-promoting effect of compounds.
Oral test compounds (3 or 10 mg/kg) suspended in 0.5% methylcellulose aqueous solution, or vehicle (i.e., 0.5% methylcellulose aqueous solution) was administered orally (p.o.) to monkeys at zeitgeber time 12 (ZT12) in a volume of 5 mL/kg body weight in cross-over design or pre-post design (n=1-4). EEG and EMG recordings were performed for 4 h after the compound administration. The time spent in wakefulness for 4 h after administration (% of vehicle treatment) was calculated by using SleepSign.
Parenteral test compounds (0.1 or 0.3 mg/kg) dissolved in a mixed solution comprising 5% DMSO, 5% Cremophor EL, 20% PEG400 and 70% soluplus (1% (w/v)), or vehicle (i.e., a mixed solution comprising 5% DMSO, 5% Cremophor EL, 20% PEG400 and 70% soluplus (1% (w/v))) was administered subcutaneously (s.c.) to monkeys at ZT12 in a volume of 0.5 mL/kg body weight in a pre-post design (n=1-2). EEG and EMG recordings were performed for 4 h after the compound administration. The time spent in wakefulness for 4 h after administration (% of vehicle treatment) was calculated by using SleepSign.

On to `CCS(=O)(=O)N[C@@H]1[C@H](Cc2cccc(-c3cccc(F)c3F)c2F)N(C(=O)C(C)(C)O)CC1(F)F` [Example 66, N-{(2S,3R)-4,4-difluoro-1-(2-hydroxy-2-methylpropanoyl)-2-[(2,2′,3′-trifluoro[1,1′-biphenyl]-3-yl)methyl]pyrrolidin-3-yl}ethanesulfonamide], for which, in data set [1], the “OX2R agonist activity (3 μM, %)” value stood at 104%. This compound also registered a microsomal CLint at 1 μmol/L in data set [2] of 61 µL/min/mg. Moreover, the response vs control in vivo at 3 mg/kg in data set [3] turned out to be 463%.

As to `CCS(=O)(=O)N[C@@H]1[C@H](Cc2cccc(-c3cc(F)cc(F)c3)c2F)N(C(=O)C2CC2)CC1(F)F` [Example 144, N-{(2S,3R)-1-(cyclopropanecarbonyl)-4,4-difluoro-2-[(2,3′,5′-trifluoro[1,1′-biphenyl]-3-yl)methyl]pyrrolidin-3-yl}ethanesulfonamide], the “OX2R agonist activity (3 μM, %)” value in data set [1] is on record as 88%. This compound came in with an intrinsic clearance (microsomal CLint) at 1 μmol/L in data set [2] of 13 µL/min/mg. Moreover, the response vs control in vivo at 3 mg/kg in data set [3] amounted to 649%.

For the compound `CS(=O)(=O)N[C@@H]1[C@H](Cc2cccc(-c3cc(F)cc(F)c3)c2F)N(C(=O)C23CC(C2)C3)CC1(F)F` [Example 87, N-{(2S,3R)-1-(bicyclo[1.1.1]pentane-1-carbonyl)-4,4-difluoro-2-[(2,3′,5′-trifluoro[1,1′-biphenyl]-3-yl)methyl]pyrrolidin-3-yl}methanesulfonamide], the “OX2R agonist activity (3 μM, %)” value in data set [1] is recorded as 93%. This compound also displayed a microsomal CLint at 1 μmol/L in data set [2] of 9 µL/min/mg. Further, the response vs control in vivo at 3 mg/kg in data set [3] amounted to 832%.

As for `CC(C)(O)C(=O)N1CC(F)(F)[C@H](NS(C)(=O)=O)[C@@H]1Cc1cccc(-c2cc(F)cc(F)c2)c1F` [Example 2, N-{(2S,3R)-4,4-difluoro-1-(2-hydroxy-2-methylpropanoyl)-2-[(2,3′,5′-trifluoro[1,1′-biphenyl]-3-yl)methyl]pyrrolidin-3-yl}methanesulfonamide], in data set [1], the “OX2R agonist activity (3 μM, %)” value is listed as 106%. Further, in data set [2], the microsomal CLint at 1 μmol/L was determined as 40 µL/min/mg. Also, in data set [3], the response vs control in vivo at 3 mg/kg came out at 600%.

Regarding `CCS(=O)(=O)N[C@@H]1[C@H](Cc2cccc(-c3cccc(F)c3)c2F)N(C(=O)C(C)C)CC1(F)F` [Example 94, N-[(2S,3R)-2-[(2,3′-difluoro[1,1′-biphenyl]-3-yl)methyl]-4,4-difluoro-1-(2-methylpropanoyl)pyrrolidin-3-yl]ethanesulfonamide], in data set [1], the “OX2R agonist activity (3 μM, %)” value is reported as 99%. The microsomal CLint at 1 μmol/L in data set [2] was 44 µL/min/mg. Further, in data set [3], the response vs control in vivo at 3 mg/kg was 442%.

Take `CCS(=O)(=O)N[C@@H]1[C@H](Cc2cccc(-c3cc(F)cc(F)c3)c2F)N(C(=O)[C@H]2C[C@@H](F)C2)CC1(F)F` [Example 380, N-{(2S,3R)-4,4-difluoro-1-((1s,3R)-3-fluorocyclobutane-1-carbonyl)-2-[(2,3′,5′-trifluoro[1,1′-biphenyl]-3-yl)methyl]pyrrolidin-3-yl}ethanesulfonamide]: the “OX2R agonist activity (3 μM, %)” value in data set [1] was found to be 93%. In data set [2], this compound returned a microsomal CLint at 1 μmol/L of 39 µL/min/mg. Further, the response vs control in vivo at 3 mg/kg in data set [3] worked out at 484%.
